Results reported in US10925283B2, “Microbiocidal phenylamidine derivatives” (SYNGENTA PARTICIPATIONS AG, priority 2016, dated 2021).

Tests used:
Format in all cases: in vivo
[1] = test system: Blumeria graminis f. sp. tritici (Erysiphe graminis f. sp. tritici); experiment: Blumeria graminis f. sp. tritici / wheat / leaf disc preventative (powdery mildew on wheat); conditions: foliar, wheat leaf segments cv. Kanzler, inoculated 1 day after application, assessed 6-8 days after application, read-out: control of Blumeria graminis f. sp. tritici (percent disease control compared to untreated)
Description: Blumeria graminis f. sp. tritici (Erysiphe graminis f. sp. tritici)/Wheat/Leaf Disc Preventative (Powdery Mildew on Wheat) Wheat leaf segments cv. Kanzler are placed on agar in a multiwell plate (24-well format) and sprayed with the formulated test compound diluted in water. The leaf disks are inoculated by shaking powdery mildew infected plants above the test plates 1 day after application. The inoculated leaf disks are incubated at 20° C. and 60% rh under a light regime of 24 h darkness followed by 12 h light/12 h darkness in a climate chamber and the activity of a compound is assessed as percent disease control compared to untreated when an appropriate level of disease damage appears on untreated check leaf segments (6-8 days after application).

[2] = test system: Puccinia recondita f. sp. tritici; experiment: Puccinia recondita f. sp. tritici / wheat / leaf disc curative (brown rust); conditions: foliar, wheat leaf segments cv. Kanzler, compound applied 1 day after inoculation, assessed 6-8 days after application, read-out: control of Puccinia recondita f. sp. tritici (percent disease control compared to untreated)
Description: Puccinia recondita f. Sp. Tritici/Wheat/Leaf Disc Curative (Brown Rust) Wheat leaf segments cv. Kanzler are placed on agar in multiwell plates (24-well format). The leaf segments are inoculated with a spore suspension of the fungus. Plates are stored in darkness at 19° C. and 75% rh. The formulated test compound diluted in water is applied 1 day after inoculation. The leaf segments are incubated at 19° C. and 75% rh under a light regime of 12 h light/12 h darkness in a climate cabinet and the activity of a compound is assessed as percent disease control compared to untreated when an appropriate level of disease damage appears in untreated check leaf segments (6-8 days after application).

[3] = test system: Puccinia recondita f. sp. tritici; experiment: Puccinia recondita f. sp. tritici / wheat / leaf disc preventative (brown rust); conditions: foliar, wheat leaf segments cv. Kanzler, inoculated 1 day after application, assessed 7-9 days after application, read-out: control of Puccinia recondita f. sp. tritici (percent disease control compared to untreated)
Description: Puccinia recondita f. Sp. Tritici/Wheat/Leaf Disc Preventative (Brown Rust) Wheat leaf segments cv. Kanzler are placed on agar in multiwell plates (24-well format) and sprayed with the formulated test compound diluted in water. The leaf disks are inoculated with a spore suspension of the fungus 1 day after application. The inoculated leaf segments are incubated at 19° C. and 75% rh under a light regime of 12 h light/12 h darkness in a climate cabinet and the activity of a compound is assessed as percent disease control compared to untreated when an appropriate level of disease damage appears in untreated check leaf segments (7-9 days after application).

Row | SMILES | pest or weed control at 200 ppm [1] | pest or weed control at 200 ppm [2] | pest or weed control at 200 ppm [3]
1 | CCCC1OCC(C)(COCC(O)(c2cc(C)c(/N=C/N(C)CC)cc2OC)C(F)(F)F)CO1 (stereo not drawn) [E.001, N-ethyl-N′-[5-methoxy-2-methyl-4-[2,2,2-trifluoro-1-hydroxy-1-[(5-methyl-2-propyl-1,3-dioxan-5-yl)methoxymethyl]ethyl]phenyl]-N-methyl-formamidine] | ≥ 80% | ≥ 80% | ≥ 80%
2 | CCN(C)/C=N/c1cc(OC)c(C(O)(COC2CCc3ccccc32)C(F)(F)F)cc1C (stereo not drawn) [E.005, N-ethyl-N′-[5-methoxy-2-methyl-4-[2,2,2-trifluoro-1-hydroxy-1-(indan-1-yloxymethyl)ethyl]phenyl]-N-methyl-formamidine] | ≥ 80% | ≥ 80% | ≥ 80%
3 | CCN(C)/C=N/c1cc(OC)c(C(O)(COCC2(c3ccc(Cl)cc3)CC2)C(F)(F)F)cc1C (stereo not drawn) [E.007, N′-[4-[1-[[1-(4-chlorophenyl)cyclopropyl]methoxymethyl]-2,2,2-triﬂuoro-1-hydroxy-ethyl]-5-methoxy-2-methyl-phenyl]-N-ethyl-N-methyl-formamidine] | ≥ 80% | ≥ 80% | ≥ 80%
4 | CCN(C)/C=N/c1cc(OC)c(C(O)(COCC(C)(C)C)C(F)(F)F)cc1C (stereo not drawn) [E.008, N′-[4-[1-(2,2-dimethylpropoxymethyl)-2,2,2-trifluoro-1-hydroxy-ethyl]-5-methoxy-2-methyl-phenyl]-N-ethyl-N-methyl-formamidine] | ≥ 80% | ≥ 80% | ≥ 80%
5 | CCN(C)/C=N/c1cc(OC)c(C(O)(COCc2ccc3ccccc3c2)C(F)(F)F)cc1C (stereo not drawn) [E.009, N-ethyl-N′-[5-methoxy-2-methyl-4-[2,2,2-trifluoro-1-hydroxy-1-(2-naphthylmethoxymethyl)ethyl]phenyl]-N-methyl-formamidine] | ≥ 80% | ≥ 80% | ≥ 80%
6 | CCN(C)/C=N/c1cc(OC)c(C(O)(COC2Cc3ccccc3C2)C(F)(F)F)cc1C (stereo not drawn) [E.010, N-ethyl-N′-[5-methoxy-2-methyl-4-[2,2,2-trifluoro-1-hydroxy-1-(indan-2-yloxymethyl)ethyl]phenyl]-N-methyl-formamidine] | ≥ 80% | ≥ 80% | ≥ 80%
7 | CCN(C)/C=N/c1cc(OC)c(C(O)(COCCOC)C(F)(F)F)cc1C (stereo not drawn) [E.012, N-ethyl-N′-[5-methoxy-2-methyl-4-[2,2,2-trifluoro-1-hydroxy-1-(2-methoxyethoxymethyl)ethyl]phenyl]-N-methyl-formamidine] | ≥ 80% | ≥ 80% | ≥ 80%
8 | CCN(C)/C=N/c1cc(OC)c(C(O)(COCC(C)(C)COC(C)(C)C)C(F)(F)F)cc1C (stereo not drawn) [E.015, N′-[4-[1-[(3-tert-butoxy-2,2-dimethyl-propoxy)methyl]-2,2,2-trifluoro-1-hydroxy-ethyl]-5-methoxy-2-methyl-phenyl]-N-ethyl-N-methyl-formamidine] | ≥ 80% | ≥ 80% | ≥ 80%
9 | CCN(C)/C=N/c1cc(OC)c(C(O)(COCCON=C(C)C)C(F)(F)F)cc1C (stereo not drawn) [E.016, N-ethyl-N′-[5-methoxy-2-methyl-4-[2,2,2-trifluoro-1-hydroxy-1-[2-(isopropylideneamino)oxyethoxymethyl]ethyl]phenyl]-N-methyl-formamidine] | ≥ 80% | ≥ 80% | ≥ 80%
10 | CCC1OCC(C)(COCC(O)(c2cc(C)c(/N=C/N(C)CC)cc2OC)C(F)(F)F)CO1 (stereo not drawn) [E.017, N-ethyl-N′-[4-[1-[(2-ethyl-5-methyl-1,3-dioxan-5-yl)methoxymethyl]-2,2,2-trifluoro-1-hydroxy-ethyl]-5-methoxy-2-methyl-phenyl]-N-methyl-formamidine] | ≥ 80% | ≥ 80% | ≥ 80%
11 | CCN(C)/C=N/c1cc(OC)c(C(O)(COCC2(C)COC2)C(F)(F)F)cc1C (stereo not drawn) [E.018, N-ethyl-N′-[5-methoxy-2-methyl-4-[2,2,2-trifluoro-1-hydroxy-1-[(3-methyloxetan-3-yl)methoxymethyl]ethyl]phenyl]-N-methyl-formamidine] | ≥ 80% | ≥ 80% | ≥ 80%
12 | CCN(C)/C=N/c1cc(OC)c(C(O)(COCCC(C)(C)OC)C(F)(F)F)cc1C (stereo not drawn) [E.019, N-ethyl-N′-[5-methoxy-2-methyl-4-[2,2,2-trifluoro-1-hydroxy-1-[(3-methoxy-3-methyl-butoxy)methyl]ethyl]phenyl]-N-methyl-formamidine] | ≥ 80% | ≥ 80% | ≥ 80%
13 | CCN(C)/C=N/c1cc(OC)c(C(O)(COCCc2ccc(OC)c(OC)c2)C(F)(F)F)cc1C (stereo not drawn) [E.022, N′-[4-[1-[2-(3,4-dimethoxyphenyl)ethoxymethyl]-2,2,2-trifluoro-1-hydroxy-ethyl]-5-methoxy-2-methyl-phenyl]-N-ethyl-N-methyl-formamidine] | ≥ 80% | ≥ 80% | 
14 | CCN(C)/C=N/c1cc(OC)c(C(O)(COCc2ccco2)C(F)(F)F)cc1C (stereo not drawn) [E.023, N-ethyl-N′-[5-methoxy-2-methyl-4-[2,2,2-trifluoro-1-(2-furylmethoxymethyl)-1-hydroxy-ethyl]phenyl]-N-methyl-formamidine] | ≥ 80% | ≥ 80% | ≥ 80%
15 | CCN(C)/C=N/c1cc(OC)c(C(O)(COC2CCC2)C(F)(F)F)cc1C (stereo not drawn) [E.025, N′-[4-[1-(cyclobutoxymethyl)-2,2,2-trifluoro-1-hydroxy-ethyl]-5-methoxy-2-methyl-phenyl]-N-ethyl-N-methyl-formamidine] | ≥ 80% | ≥ 80% | ≥ 80%
16 | CCCSCC(O)(c1cc(C)c(/N=C/N(C)CC)cc1OC)C(F)(F)F (stereo not drawn) [E.062, N-ethyl-N′-[5-methoxy-2-methyl-4-[2,2,2-trifluoro-1-hydroxy-1-(propylsulfanylmethyl)ethyl]phenyl]-N-methyl-formamidine] | ≥ 80% | ≥ 80% | 
17 | CCN(C)/C=N/c1cc(OC)c(C(O)(CSC)C(F)(F)F)cc1C (stereo not drawn) [E.070, N-ethyl-N′-[5-methoxy-2-methyl-4-[2,2,2-trifluoro-1-hydroxy-1-(methylsulfanylmethyl)ethyl]phenyl]-N-methyl-formamidine] | ≥ 80% |  | ≥ 80%
18 | CCN(C)/C=N/c1cc(OC)c(C(O)(CSC(C)C)C(F)(F)F)cc1C (stereo not drawn) [E.071, N-ethyl-N′-[5-methoxy-2-methyl-4-[2,2,2-trifluoro-1-hydroxy-1-(isopropylsulfanylmethyl)ethyl]phenyl]-N-methyl-formamidine] | ≥ 80% |  | ≥ 80%
19 | CCN(C)/C=N/c1cc(OC)c(C(O)(C2CCS(=O)(=O)CC2)C(F)(F)F)cc1C (stereo not drawn) [E.076, N′-[4-[1-(1,1-dioxothian-4-yl)-2,2,2-trifluoro-1-hydroxy-ethyl]-5-methoxy-2-methyl-phenyl]-N-ethyl-N-methyl-formamidine] |  | ≥ 80% | 
